# Test results as given in patent US20030232101A1, “Topical formulations of resorcinols and cannibinoids and methods of use” (Immugen Pharmaceuticals, Inc., priority 2002, published 2003).
# Tests used:
# Assay type in all cases: cell-based
# [1] = test system: interaction of HIV gp 120 with CD4 (HeLa CD4 LTR β-gal / HL2/3 cell fusion); assay: HeLa CD4 LTR β-gal/HL2/3 HIV-1 fusion assay (Experimental Example 1); settings: fusion assay
# From the text: This assay uses the HeLa CD4 LTR β-gal and HL2-3 cells available from the AIDS Research and Reference Reagent Repository. The fusion assay utilizes HeLa CD4 LTR β-gal cells with HL2/3 cells as a fusion partner via the interaction of HIV gp 120 with CD4. HL2/3 cells express HIV-1 Env on their cell surface and contain an HIV-1 Tat expression cassette. Upon syncytium formation and plasma membrane fusion, cytoplasmic mixing of the HL2/3 and HeLa CD4 LTR b-gal cell contents results in the transactivation of the LTR and β-Galactosidase expression is then directly related to […] cell membrane fusion. Thus, these two mechanistic assays can be used to confirm and identify a virus entry-based target of the compound. Additionally, because the attachment assay uses cell-free virus this assay can be used to show applicability to cell-free virus transmission.
# Twenty-four h prior to initiation of the assay cells were trypsinized, counted and 5×10^3 cells placed in a 0.2 cm well in media without selection antibiotics. To initiate the fusion assay HeLa CD4 LTR β-gal (5×10^3 cells per 0.2 cm well) were incubated with compound for 1 h at 37° C. HL2/3 cells (5×10^3) were added to the 0.2 cm well and the incubation continued for 48 h. At 48 h the wells were washed 1 time with PBS and β-galactosidase enzyme expression determined by chemiluminescence per manufacturers instructions (Tropix Gal-screen™, Tropix, Bedford, Mass.). Compound toxicity was monitored on sister plates using MTS dye reduction.
# In addition to assessing inhibition of attachment with HeLa CD4 LTR β-gal cells a virus fusion assay was perfoed using HeLa CD4 LTR β-gal and HL2/3 cells. No timed addition of compound was employed, but rather the assay was performed to verify the effects of the compounds on the HeLa CD4 LTR β-gal cells β-galactosidase expression.
# [2] = test system: cell-to-cell fusion mediated by HIV-1 Env and CD4; assay: Fusion assay, HeLa CD4 LTR β-gal and HL2/3 cells (Experimental Example 2); settings: Human immunodeficiency virus 1, HL2/3, read-out: Fusion Assay IC50
# Experimental: (§1) The fusion assay assesses the ability of compounds to block cell-to-cell fusion mediated by HIV-1 Env and CD4 expressed on separate cells. This assay is sensitive to inhibitors of both the gp 120/CD4 interaction and inhibitors of the X4 coreceptor. HeLa CD4 LTR β-gal cells were plated in microtiter wells and diluted compounds are added and allowed to incubate at 37° C. for 1 hr prior to the addition of HL2/3 cells. The incubation was then continued for 40 to 48 h, after which fusion is monitored by measurement of β-galactosidase enzyme expression, detectable by chemiluminescence (Tropix Gal-screen, Tropix, Bedford, Mass.). Compound toxicity is monitored on a sister plate using XTT or MTS dye reduction. All determinations are performed in triplicate with serial_Log10 dilution of the test materials.
# [3] = test system: IIIB strain of HIV-1; assay: Virus attachment assay, HeLa CD4 LTR β-gal cells (Experimental Example 2); settings: Human immunodeficiency virus 1, IIIB, HeLa, read-out: Attachment Assay IC50
# Experimental: (§2) This assay detects compounds that block virus attachment using HeLa CD4 LTR β-gal cells. HeLa CD4 LTR β-gal cells were cultured with selection antibiotics. Twenty-four h prior to initiation of the assay, the cells were trypsinized, counted and plated in a 0.2 cm well in media without selection antibiotics. At 24 h media is removed and compound in media placed on the cells and incubated for 15 min at 37° C. A known titer of the IIIB strain of HIV-1 was then added to the wells and the incubation continued for 1 to 2 h. At the end of the incubation the wells were washed 2 times with media and the culture continued for 40 to 48 h. At termination of the assay, media is removed and β-galactosidase enzyme expression determined by chemiluminescence per manufacturer's instructions (Tropix Gal-screen, Bedford Mass.). Compound toxicity is monitored on a sister plate by XTT or MTS dye reduction. All determinations are performed in triplicate with serial_Log10 dilution of the test materials.
# [4] = Compound toxicity in the fusion assay, sister plate, XTT or MTS (Example 2); settings: human, HeLa CD4 LTR β-gal cells, read-out: Fusion Assay TC50
# Experimental: as §1
# [5] = Compound toxicity in the attachment assay, sister plate, XTT or MTS (Example 2); settings: human, HeLa CD4 LTR β-gal cells, read-out: Attachment Assay TC50
# Experimental: as §2, with “materials. The virus adsorption interval of 1 to 2 h was sufficiently short that AZT, which requires phosphorylation to achieve its active tri-phosphate form (AZT-TTP), is not active in this assay.” for “materials.”
# [6] = test system: HeLa CD4 LTR β-gal cells; assay: as above
# Experimental: as §2, with “materials. The virus adsorption interval of 1 to 2 h was sufficiently short that AZT, which requires phosphorylation to achieve its active tri-phosphate form (AZT-TTP), is not active in this assay.” for “materials.”
SMILES,Comments: suppression of β-galactosidase activity [1],IC50 [2],IC50 [3],CC50 [4],CC50 [5],Attachment Assay TC50 [6]
"C=C(C)[C@@H]1CCC(C)=C[C@H]1c1c(O)cc(CCCCC)cc1O [Cannabidiol, reference compound]",Suppression of β-galactosidase,–,–,–,–,–
"CC1=CCC2C(C1)c1c(O)cc(C(C)(C)CCCC(C)C)cc1OC2(C)C (stereo not drawn) [IMG509, 3-Norpentyl-3-(1,1,5-trimethylhexyl)-Δ8-tetrahydrocannabinol]",Suppression of β-galactosidase,1.21 µM,48.4 µM,18.4 µM,> 10 µM,–
"Cc1c(O)cc(C(C)(C)CCCC(C)C)cc1O [IMG510, 2-Methyl-5-(1,1,5-trimethylhexyl)resorcinol]",–,1.36 µM,50.8 µM,> 100 µM,> 10 µM,–
"Cc1ccc2c(c1)-c1c(O)cc(C(C)(C)CCCC(C)C)cc1OC2(C)C [IMG511, 3-Norpentyl-3-(1,1,5-trimethylhexyl)cannabinol]",Suppression of β-galactosidase,0.92 µM,46.3 µM,20.7 µM,–,>67 µM
